Experiments:
Type in all cases: in vivo, mouse
[1] = system: corneal nerves of Aire KO corneas; test: Corneal nerve density (GAP43, TUBB3, SP, CGRP immunolabeling)
From the text: To test for changes in innervation, corneas isolated from the four treatment groups at day 15 were immunostained for growth-associated protein 43 (GAP43), a marker of remodeling axons (25), along with two common sensory neuropeptides, substance P (SP) and calcitonin-gene related protein (CGRP). SP and CGRP are differentially expressed to carry out discrete functions: SP is released in response to trigeminal activation to modulate tear secretion and goblet cell function (26) while CGRP is involved in multiple homeostatic processes, including corneal epithelium regeneration and regulation of vasculature (27, 28). […] Thus, lacripep treatment successfully regenerates the sensory nerve supply to the inflamed cornea during disease progression.
Given nerve-epithelial interactions are essential for mediating physiological tear secretion, we next assessed innervation to corneal epithelial cell layers at 2 wks of treatment (day 15, 7 wks of age) through immunofluorescent analysis.
Next, we questioned the timing of epithelial reinnervation in response to lacripep treatment by analyzing the nerve supply at the 7 day time point (6 wks of age) through 3D imaging of intact whole mount corneas (FIG. 3A). […] Of note, the pro-regenerative cellular changes after axon injury result in neurons switching from an active, electrically transmitting state back to an electrically silent, growth-competent state (29-31), thereby likely impairing increased basal tear production at the 7 day time point for lacripep treated mice compared to untreated Aire KO controls (FIG. 1B).
For corneal whole mount staining, PFA fixed corneas were blocked and incubated in primary antibodies for 48 hr at 4° C.: Mouse anti-TUBB3 (1:300, R&D, MAB 1195), rabbit anti-GAP43 (1:400, Novus bio, NB 300-143), goat anti-CGRP (1:300, Thermo fisher, PA1-85250), and rat anti-Substance P (1:500, Millipore, MAB 356). This was followed by extensive washes in PBST before tissue was incubated in secondary antibodies overnight at 4° C.
Quantification of corneal epithelial nerve density and synapses. Tissue sections: TUBB3+ nerve density within 300 μm sections of central cornea epithelial ROI was quantified by applying Tsai's thresholding method (Moments), with integrated densities within the ROI of the thresholded image being recorded. Corneal whole mounts: The density of nerves expressing GAP43, TUBB3, or GAP43 and TUBB3 (% Area of 354 μm×396 μm) was quantified from central cornea images of whole mount cornea and plotted in a stacked bar graph to visualize the proportion of each of the three nerve types. Similarly, numbers of synapses marked by expression of GAP43, TUBB3, or GAP43 and TUBB3 were counted per respective region of central cornea (100 μm2) and plotted in a stacked bar graph. The density of GAP43+ nerves were quantified from the whole mount cornea images (354 μm×396 μm) applying Tsai's threshold as described above.
3D reconstruction of nerve fibers. Acquired confocal Z-stacks comprising epithelial and stroma were reconstructed into 3D images using Imaris image analysis software (Bitplane AG, Zurich, Switzerland). The surface of the nuclei (Hoechst) and nerves (TUBB3/GAP43/SP/CGRP) were segmented using the background subtraction threshold. Each channel was obtained separately. Touching nuclei were split by the calculated seed points inside each area.

ZO1 = test: Immunofluorescent quantification of tight junction protein ZO1 in corneal epithelium; conditions: day 15; Aire KO cornea
From the text: As dry eye results in disruption of ocular surface integrity resulting in cornea barrier dysfunction and, consequently, fluid loss and pathogen invasion (11), we next determined whether lacripep maintains corneal epithelial architecture by analyzing lissamine green uptake at day 7 and 15. […] Restoration of barrier function was further confirmed by analyzing the superficial epithelial layers for the tight junction protein ZO1 which is essential to the structural integrity of the corneal epithelium (12).
Immunohistological and immunofluorescent analyses of cornea and lacrimal gland samples were performed as previously described (8). […]
For immunofluorescent analysis, 7 or 20 μm tissue sections were incubated with the following primary antibodies: mouse anti-ZO1 conjugated to Alexa594 (1:1000, Life Technologies, Cat 339194), rabbit anti-KRT6A (1:800, Cell Signaling, Cat 4912S), chicken anti-KRT14 (1:1500, Santa Cruz, Cat 515882), rat anti-Ki67 (1:200, Biolegend, 652405), rat anti-CD4 (1:200, Santa Cruz), rabbit anti-TUBB3 (1:500, Cell Signaling, Cat 5568S), and rat anti-Ecadherin (1:300, Life Technologies, Cat 131900). Antibodies were detected using Cy2-, Cy3- or Cy5-conjugated secondary Fab fragment antibodies (Jackson Laboratories), and nuclei were stained with Hoechst 33342 (1:3000, Sigma-Aldrich). […]
Quantification of tight junction protein ZO1. […]

CD4+ T cells = test: CD4+ T cell infiltration of cornea and lacrimal gland; conditions: day 15
From the text: We next tested whether lacripep restored basal cell identity and barrier function by reducing immune cell infiltration. Prolonged desiccating stress from reduced tear production elicits an immune response in which activated CD4+ T cells home to the corneal epithelium and stroma (primarily accumulating at the limbal region) to modulate epithelial differentiation (17) and direct the development of autoimmune mediated dry eye (18).
For immunofluorescent analysis, 7 or 20 μm tissue sections were incubated with the following primary antibodies: mouse anti-ZO1 conjugated to Alexa594 (1:1000, Life Technologies, Cat 339194), rabbit anti-KRT6A (1:800, Cell Signaling, Cat 4912S), chicken anti-KRT14 (1:1500, Santa Cruz, Cat 515882), rat anti-Ki67 (1:200, Biolegend, 652405), rat anti-CD4 (1:200, Santa Cruz), rabbit anti-TUBB3 (1:500, Cell Signaling, Cat 5568S), and rat anti-Ecadherin (1:300, Life Technologies, Cat 131900). Antibodies were detected using Cy2-, Cy3- or Cy5-conjugated secondary Fab fragment antibodies (Jackson Laboratories), and nuclei were stained with Hoechst 33342 (1:3000, Sigma-Aldrich). Fluorescence was analyzed using a Zeiss LSM 900 confocal microscope or Zeiss Yokogawa Spinning disk confocal microscope with images assessed using NIH ImageJ software, as described below.
Quantification of CD4+ T cells in cornea and Lacrimal gland. […]

Substance: Ac-KQFIENGSEFAQKLLKKFSLLKPWA-NH2 [lacripep, amino terminus acetylated, carboxyl terminus aminated]
- proportion of GAP43+ TUBB3+ nerves in central cornea ([1]; day 7, WT 37%): 26%
- proportion of GAP43+ nerves in central cornea ([1]; day 7, WT 43%): 50%
- nerve density of central cornea relative to WT tissue ([1]; day 7, whole mount): 45 % of the nerve density of WT tissue
- nerve density level ([1]; day 15): returning to that of WT cornea
- innervation of epithelial cell layers (TUBB3+ axons) ([1]; day 15, central corneal cross-sections): resembled that of WT tissue
- density of GAP43+ nerve fibers expressing SP and CGRP ([1]; day 15, whole mount cornea): nearly equivalent to that of the WT controls
- ZO1 expression in superficial epithelial layers (ZO1): mimicked that of WT controls
- CD4+ T cell infiltration of cornea (CD4+ T cells; Aire KO corneas regardless of treatment): extensively infiltrated by CD4+ T cells
- CD4+ T cell infiltration of lacrimal glands (CD4+ T cells; Aire KO lacrimal glands regardless of treatment): extensively infiltrated by CD4+ T cells

From patent US20250302913A1, “LACRIPEP PROMOTES NEUROREGENERATION AND MAINTAINS EPITHELIAL PROGENITOR CELL IDENTITY” (The Regents of The University of California, priority 2022, published 2025)
